Our source for the EC50 values is patent US9085587B2, “Inhibitors of hepatitis C virus” (priority 2010, dated 2015).

The test system of the experiment is HCV 1b replication (bicistronic genotype 1b replicon in Huh 7 cells). In words: HCV 1b replicon assay (1b_Huh-Luc/Neo-ET cell line, luciferase readout). The experiment is classed as cell-based. As to conditions: Hepatitis C virus. The protocol: Biological activity of the compounds of the invention was determined using an HCV replicon assay. The 1b_Huh-Luc/Neo-ET cell line persistently expressing a bicistronic genotype 1b replicon in Huh 7 cells was obtained from ReBLikon GMBH. This cell line was used to test compound inhibition using luciferase enzyme activity readout as a measurement of compound inhibition of replicon levels.
On Day 1 (the day after plating), each compound was added in triplicate to the cells. Plates were incubated for 72 hours prior to running the luciferase assay. Enzyme activity was measured using a Bright-Glo Kit (cat. number E2620) manufactured by Promega Corporation. The following equation was used to generate a percent control value for each compound. % Control=(Average Compound Value/Average Control)*100
The EC50 value was determined using GraphPad Prism and the following equation: Y=Bottom+(Top-Bottom)/(1+10^((Log IC50−X)*HillSlope))
EC50 values of compounds were repeated several times in the replicon assay.
On the technique in general: In antiviral work, replicon cells carry a viral genome segment that copies itself.

[1] abbreviates: Huh-7, 1b_Huh-Luc/Neo-ET cell line, 72 hours, luciferase readout, read-out: EC50, concentration effective to produce a half-maximal inhibition of HCV 1b replication.
The mark [2] stands for this setting: Huh-7, class symbols, genotype 1b replicon, read-out: Inhibition of HCV genotype 1b replicon.

Each structure is given as a SMILES string. Read-outs that look alike come from different tables or passages of the source. Bounds are passed on as bounds.

As to `CNC(=O)c1c(-c2ccc(F)cc2)oc2cc3c(cc12)[C@H](C)O[C@H](COC(=O)c1cccnc1)CN3S(C)(=O)=O` [Compound B263], the EC50 under setting [1] is at most 10 nM and the EC50 under setting [2] was under 10 nM.
Taken in the same sequence, the figures for `CONC(=O)c1c(-c2ccc(F)cc2)oc2cc3c(cc12)[C@H](C)O[C@H](CO)CN3S(C)(=O)=O` [Compound B257] were at most 10 nM and under 10 nM.
As for `CNC(=O)c1c(-c2ccc(F)cc2)oc2cc3c(cc12)[C@H](C)O[C@H](COC(=O)CN)CN3S(C)(=O)=O` [Compound B253], the EC50 was at most 10 nM under setting [1] and under 10 nM under setting [2].
Consider `CNC(=O)c1c(-c2ccc(F)cc2)oc2cc3c(cc12)[C@H](C)O[C@H](COC(=O)C1CCNCC1)CN3S(C)(=O)=O` [Compound 8265], for which the EC50 reads like this: (Huh-7, read-out: Inhibition of HCV genotype 1b replicon) under 10 nM; under setting [1], at most 10 nM.
For `CNC(=O)c1c(-c2ccc(F)cc2)oc2cc3c(cc12)C(C)=CCCN3S(C)(=O)=O` [Compound B6], the EC50 was 10 to 100 nM under setting [1] and 10 to 100 nM under setting [2].
On to `CN/C(=N\OC)c1c(-c2ccc(F)cc2)oc2cc3c(cc12)[C@H](C)O[C@H](CS(C)(=O)=O)CN3S(C)(=O)=O` [Compound B284], for which the EC50 under setting [2] was in the range of 100 to 1000 nM.
Turning to `CNC(=O)c1c(-c2ccc(F)cc2)oc2cc3c(cc12)[C@H](C)O[C@H](COC(=O)[C@@H]1CCCN1)CN3S(C)(=O)=O` [Compound B266], the EC50 runs as follows: under setting [1], at most 10 nM; under setting [2], under 10 nM.
On to `CNC(=O)c1c(-c2ccc(F)cc2)oc2cc3c(cc12)[C@H](C)O[C@H](COCCOCCOC)CN3S(C)(=O)=O` [Compound B268], for which the EC50 was at most 10 nM under setting [1] and under 10 nM under setting [2].
`C=C1CCCN(S(C)(=O)=O)c2cc3oc(-c4ccccc4F)c(C(=O)NC)c3cc21` [Compound B31]: the EC50 fell in the range of 10 to 100 nM under setting [1] and 10 to 100 nM under setting [2].
In the case of `CNC(=O)c1c(-c2ccc(F)cc2)oc2cc3c(cc12)[C@H](C)O[C@H](CO[C@H]1CCOC1)CN3S(C)(=O)=O` [Compound B285], the EC50 by setting is: under setting [1], at most 10 nM; under setting [2], under 10 nM.
As for `CNC(=O)c1c(-c2ccc(F)cc2)oc2cc3c(cc12)[C@H](C)O[C@H](COC(=O)[C@@H](N)CC(C)C)CN3S(C)(=O)=O` [Compound B271], the EC50 is, setting by setting: under setting [1], at most 10 nM; under setting [2], under 10 nM.
Take `CNC(=O)c1c(-c2ccc(Oc3ccc(F)cc3)cc2)oc2cc3c(cc12)[C@H](C)O[C@H](COC(=O)c1cccnc1)CN3S(C)(=O)=O` [Compound B246]: the EC50 by setting is: under setting [1], at most 10 nM; under setting [2], under 10 nM.
Turning to `CNC(=O)c1c(-c2ccc(F)cc2)oc2cc3c(cc12)[C@H](C)O[C@H](COP(=O)(O)O)CN3S(C)(=O)=O` [Compound B255], the EC50 by setting is: under setting [1], at most 10 nM; under setting [2], under 10 nM.
The like results for `CNC(=O)c1c(-c2ccc(F)cc2)oc2cc3c(cc12)[C@H](C)O[C@H](COCCOC)CN3S(C)(=O)=O` [Compound B267] were, in that order, at most 10 nM and under 10 nM.
Take `CNC(=O)c1c(-c2ccc(F)cc2)oc2cc3c(cc12)[C@H](C)O[C@H](COC(=O)[C@@H](N)c1ccccc1)CN3S(C)(=O)=O` [Compound B272]: the EC50 was at most 10 nM under setting [1] and under 10 nM under setting [2].
For the molecule `CNC(=O)c1c(-c2ccc(F)cc2)oc2cc3c(cc12)[C@H](C)O[C@H](COC(=O)CN(C)C)CN3S(C)(=O)=O` [Compound B252], the EC50 reads like this: under setting [1], at most 10 nM; under setting [2], under 10 nM.
The like results for `CNC(=O)c1c(-c2ccc(Oc3ccc(F)cc3)cc2)oc2cc3c(cc12)[C@H](C)O[C@H](COC(=O)CCC(=O)O)CN3S(C)(=O)=O` [Compound B245] were, in that order, at most 10 nM and under 10 nM.
The like results for `CNC(=O)c1c(-c2ccc(F)cc2F)oc2cc3c(cc12)C(C)CCCN3S(C)(=O)=O` (stereo not shown) [Compound B35] were, in that order, at most 10 nM and under 10 nM.
In the case of `CNC(=O)c1c(-c2ccc(F)cc2F)oc2cc3c(cc12)C(C)=CCCN3S(C)(=O)=O` [Compound B34], the EC50 under setting [1] is 10 to 100 nM and the EC50 under setting [2] lay in the range of 10 to 100 nM.
